Data as given in patent US20230088214A1, “GLYCOLATE OXIDASE INHIBITORS FOR THE TREATMENT OF DISEASE” (BIOMARIN PHARMACEUTICAL INC., priority 2019, published 2023).

Assays:
GO [1] = biological target: T1, GO (Mus musculus, UniProt Q9WU19); test: GO Cellular Assay: Primary Hepatocyte Assay (Assay 2); format: cell-based; conditions: primary mouse hepatocytes, 5 mM glycolate, oxalate at 72 hours; read-out: Range of IC50 values calculated from the cellular assays (Assay 2)
T1 construct: endogenous in cells; host or cells: primary hepatocytes from male C56BL/6 (so in the source) mouse liver
T1 sequence (Q9WU19 1-370): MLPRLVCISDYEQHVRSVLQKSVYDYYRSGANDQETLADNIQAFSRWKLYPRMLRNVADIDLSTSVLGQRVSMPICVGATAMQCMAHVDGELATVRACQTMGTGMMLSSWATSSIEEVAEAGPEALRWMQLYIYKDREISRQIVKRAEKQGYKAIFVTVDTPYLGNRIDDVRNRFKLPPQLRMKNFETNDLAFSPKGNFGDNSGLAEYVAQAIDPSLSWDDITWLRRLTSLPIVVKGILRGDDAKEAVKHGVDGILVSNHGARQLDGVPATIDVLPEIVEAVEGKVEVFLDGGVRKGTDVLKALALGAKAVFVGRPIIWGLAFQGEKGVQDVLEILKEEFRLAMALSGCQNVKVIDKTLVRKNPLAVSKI
Procedure: Assay 2: GO Cellular Assay: Primary Hepatocyte Assay
Primary hepatocytes were used for a GO cellular assay as previously described (Martin-Higueras et al., Mol Ther. 24(4): 719-725 (2016)). Hepatocytes were isolated using an in situ collagenase perfusion method from male C56BL/6 mice liver. The freshly isolated hepatocytes were cultured in six well plates with Williams E medium supplemented with 5% fetal bovine serum, 2 mM 1-glutamine, 100 U/ml penicillin, 100 μg/ml streptomycin, 2.2 mUI/ml insulin and 0.3 μg/ml hydrocortisone. After 5 hours, the medium was changed to Williams E complete medium (Biochrom, Cambridge, UK) without serum and cells were treated with various concentrations of inhibitors in the presence of 5 mM glycolate. Culture medium was harvested at 72 hours after treatment, and the oxalate was quantified by using an oxalate oxidase assay kit (Trinity Biotech, Co Wicklow, Ireland) following manufacturer's instructions. The oxalate level was also confirmed by LC-MS method. The IC50 value for each measured compound was generated from sigmoidal dose-response (variable slope) curves with GraphPad Prism software (GraphPad Software, Inc., San Diego, Calif.) using the percent inhibition of GO activity relative to DMSO control.

GO [2] = biological target: T2, GO (Homo sapiens, UniProt Q9UJM8); test: GO Cellular Assay: CHO-Agt Cells Assay (Assay 3); format: cell-based, Chinese hamster; design: host or cells: CHO cells (A.T.C.C. CCl-61) and engineered CHO-Agt cells (from Fargue/Danpure); conditions: 100 uM glycolic acid, glyoxylate by LC-MS at 2 hours, read-out: Range of IC50 values calculated from the cellular assays (Assay 3)
T2 sequence (Q9UJM8 1-370): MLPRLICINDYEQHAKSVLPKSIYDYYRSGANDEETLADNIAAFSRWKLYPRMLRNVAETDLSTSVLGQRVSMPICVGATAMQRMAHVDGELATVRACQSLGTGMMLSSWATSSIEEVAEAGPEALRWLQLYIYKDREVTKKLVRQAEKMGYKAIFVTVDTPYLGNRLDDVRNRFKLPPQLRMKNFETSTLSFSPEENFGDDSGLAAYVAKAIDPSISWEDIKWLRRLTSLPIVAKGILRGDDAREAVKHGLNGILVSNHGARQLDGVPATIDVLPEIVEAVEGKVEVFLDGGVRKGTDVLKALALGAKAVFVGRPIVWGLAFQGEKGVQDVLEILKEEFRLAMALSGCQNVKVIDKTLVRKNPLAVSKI
Procedure: Assay 3: GO Cellular Assay: CHO-Agt Cells Assay
CHO cells (A.T.C.C. number CCl-61) and engineered CHO-Agt cells (provided by Dr. Sonia Fargue and Dr. Christopher J. Danpure, Biochem. J. (2006) 394, 409-416) were used as a screening cellular assay for primary compounds. The cells were seeded in 20,000 cell/well in 96 well plate and cultured at 37-C under O2/CO2 (19:1) in Ham's F12 medium (Invitrogen) supplemented with fetal calf serum (10%, v/v), L-glutamine (2 mM), penicillin (100 units/ml) and streptomycin (100 pug/ml). After overnight culture, the cells were treated with various concentrations of inhibitors in the presence of 100 uM glycolic acid in HEPES buffer, pH7.0 (Sigma-Aldrich, Cat #124737). Culture medium was harvested at 2 hours after treatment for glyoxylate analysis and cell viability was measured by Cell Titer-Glo (Fisher Scientific, Cat #. PR-G7570).
The glyoxylate was quantified using LC-MS method. An aliquot of 120 μL medium was removed from each well and protein precipitated by adding 240 μL IS (100 ng/ml 13C2-glyoxylic acid, Sigma-Aldrich, Cat #G755002). The mixture was vortex-mixed well and centrifuged at 3900 rpm for 15 min, 4° C. 100 μL supernatant was then mixed with 10 μL formic acid and 100 μL 400 μM DNPH (2,4-dinitrophenylhydrazine) (Shanghai Runjie Huaxue Shiji Ltd., Cat #A0000436) and the mixture was shaken for 30 minutes. A 3 μL mixture of reaction mixture was injected for LC-MS/MS analysis. (Behnam J T, Williams E L, Brink S, Rumsby G, Danpure C J., “Reconstruction of human hepatocyte glyoxylate metabolic pathways in stably transformed Chinese-hamster ovary cells”, Biochem J. 2006 Mar. 1; 394 (Pt 2):409-16.)

SMILES | IC50 (GO [1]) | IC50 (GO [2])
O=Cc1[nH]nnc1Oc1ccc(-c2ccc(OC(F)(F)F)cc2)cc1 [Compound 491, 4-((4′-(trifluoromethoxy)-[1,1′-biphenyl]-4-yl)oxy)-1H-1,2,3-triazole-5-carbaldehyde] | < 1000 nM | < 1000 nM
OCc1[nH]nnc1Oc1ccc(-c2ccc(Cl)cc2)cc1 [Compound 493-2, (4-((4′-chloro-[1,1′-biphenyl]-4-yl)oxy)-1H-1,2,3-triazol-5-yl)methanol] | – | 1000 to 5000 nM
OCc1[nH]nnc1Oc1ccc(-c2ccc(OC(F)(F)F)cc2)cc1 [Compound 487, (4-((4′-(trifluoromethoxy)-[1,1′-biphenyl]-4-yl)oxy)-1H-1,2,3-triazol-5-yl)methanol] | 1000 to 5000 nM | 1000 to 5000 nM
O=Cc1[nH]nnc1O[C@H]1CC[C@H](c2ccc(OC(F)(F)F)cc2)CC1 [Compound 490, 4-(((trans)-4-(4-(trifluoromethoxy)phenyl)cyclohexyl)oxy)-1H-1,2,3-triazole-5-carbaldehyde] | < 1000 nM | < 1000 nM
CC(C)OC(=O)OCOC(=O)c1[nH]nnc1O[C@H]1CC[C@H](c2ccc(OC(F)(F)F)cc2)CC1 [Compound 302, ((isopropoxycarbonyl)oxy)methyl 4-(((trans)-4-(4-(trifluoromethoxy)phenyl)cyclohexyl)oxy)-1H-1,2,3-triazole-5-carboxylate] | – | < 1000 nM
OCc1[nH]nnc1O[C@H]1CC[C@H](c2ccc(OC(F)(F)F)cc2)CC1 [Compound 488, (4-(((trans)-4-(4-(trifluoromethoxy)phenyl)cyclohexyl)oxy)-1H-1,2,3-triazol-5-yl)methanol] | < 1000 nM | 1000 to 5000 nM
CC(C)C(=O)OCCOC(=O)c1[nH]nnc1O[C@H]1CC[C@H](c2ccc(OC(F)(F)F)cc2)CC1 [Compound 371, 2-(isobutyryloxy)ethyl 4-(((trans)-4-(4-(trifluoromethoxy)phenyl)cyclohexyl)oxy)-1H-1,2,3-triazole-5-carboxylate] | < 1000 nM | –
CCN(CC)C(=O)OCOC(=O)c1[nH]nnc1O[C@H]1CC[C@H](c2ccc(OC(F)(F)F)cc2)CC1 [Compound 370, ((diethylcarbamoyl)oxy)methyl 4-(((trans)-4-(4-(trifluoromethoxy)phenyl)cyclohexyl)oxy)-1H-1,2,3-triazole-5-carboxylate] | < 1000 nM | –
OCc1[nH]nnc1SC1CCN(c2cc(Cl)cc(Cl)c2)CC1 [Compound 495, (4-((1-(3,5-dichlorophenyl)piperidin-4-yl)thio)-1H-1,2,3-triazol-5-yl)methanol] | – | > 10000 nM
OCc1nn[nH]c1Oc1ccc(-c2ccc(N3CCCCC3)cc2)cc1 [Compound 496, (4-((4′-(piperidin-1-yl)-[1,1′-biphenyl]-4-yl)oxy)-1H-1,2,3-triazol-5-yl)methanol] | < 1000 nM | < 1000 nM
OCc1[nH]nnc1OC1CCN(c2cc(Cl)cc(Cl)c2)CC1 [Compound 494, (4-((1-(3,5-dichlorophenyl)piperidin-4-yl)oxy)-1H-1,2,3-triazol-5-yl)methanol] | – | 5000 to 10000 nM
CCOC(=O)c1[nH]nnc1Sc1nc(-c2ccc(Cl)c(Cl)c2)cs1 [Compound 1, ethyl 4-((4-(3,4-dichlorophenyl)thiazol-2-yl)thio)-1H-1,2,3-triazole-5-carboxylate] | – | > 10000 nM
OCc1[nH]nnc1Sc1ccc(-c2ccc(OC(F)(F)F)cc2)cc1 [Compound 497, (4-((4′-(trifluoromethoxy)-[1,1′-biphenyl]-4-yl)thio)-1H-1,2,3-triazol-5-yl)methanol] | – | > 10000 nM
OCc1[nH]nnc1Sc1ccc(-c2ccc(N3CCCCC3)cc2)cc1 [Compound 492, (4-((4′-(piperidin-1-yl)-[1,1′-biphenyl]-4-yl)thio)-1H-1,2,3-triazol-5-yl)methanol] | < 1000 nM | > 10000 nM
O=C(OC1CC1)c1[nH]nnc1Oc1ccc2cc(Br)ccc2c1 [Compound 110, cyclopropyl 4-((6-bromonaphthalen-2-yl)oxy)-1H-1,2,3-triazole-5-carboxylate] | – | 1000 to 5000 nM
OCc1[nH]nnc1S[C@H]1CC[C@@H](c2ccc(OC(F)(F)F)cc2)CC1 [Compound 489, (4-(((cis)-4-(4-(trifluoromethoxy)phenyl)cyclohexyl)thio)-1H-1,2,3-triazol-5-yl)methanol] | – | 1000 to 5000 nM
OCc1[nH]nnc1Oc1ccc(-c2ccc(Cl)c(Cl)c2)cc1 [Compound 493-1, (4-((3′,4′-dichloro-[1,1′-biphenyl]-4-yl)oxy)-1H-1,2,3-triazol-5-yl)methanol] | < 1000 nM | 1000 to 5000 nM
